Reference: patent US5219884A, “Immunosuppressant” (Taito Co., Ltd., priority 1990, dated 1993)
Like-named read-outs stand apart in the source and are kept apart here.

How the values were obtained:
[1] = tested on: KATOIII; assay: in vitro; type: cell-based, human
[2] = tested on: IL2 production in PHA-stimulated mouse spleen cells; assay: suppression of IL2 production in PHA-stimulated mouse spleen cells; type: cell-based; conditions: for inhibition at 0.01 µg/mL / inhibition at 0.1 µg/mL / inhibition at 1 µg/mL / inhibition at 10 µg/mL: Mus musculus, 24 h, read-out: Suppression
Method: Culture of PHA-stimulated mouse spleen cells was carried out as follows: PHA (1/100 dilution) was added to the BALB/c mouse spleen cells suspension prepared in the same way as in Experimental Example 4. The cell suspension (1 ml) and 1 ml of the test substance were added to 24-well multidishes, and cultured at 37° C. in an atmosphere of 5% carbon dioxide for 24 hours. After termination of the culture, the supernatant was collected and used as the supernatant of PHA-stimulated cultures.
The IL2 activity in the supernatants of mouse allogenic MLC and the supernatants of PHA-stimulated mouse spleen cells culture was assayed as follows: IL2-dependent mouse cell line CTLL-2 cells were suspended in the RPMI1640 culture medium supplemented with 30% FCS to the concentration of 10^5 cells/ml, and 100 μl of the suspension was added to each well of 96-well microculture plates in which 100 μl of the supernatant of the MLC described above had been placed. After culturing at 37° C. in an atmosphere of 5% carbon dioxide for 20 hours, 0.5 μCi/well of ^3 H-thymidine was added, and incubated for 4 hours under the same conditions. After termination of the culture, the cells were harvested by a cell harvester, and the radioactivity incorporated into the cells was measured by a liquid scintillation counter. IL2 activity was expressed in U/ml as the titer at various concentrations at which the ^3 H-thymidine incorporation was 50% of the maximum.

[3] = tested on: alloreactive cytotoxic T cells (EL4 target cells); assay: suppression of induction of alloreactive cytotoxic T cells in mouse allogenic MLC (51Cr release); type: cell-based
Method: The spleen cells suspension, 0.5 ml, (2×10^7 cells/ml) of BALB/c mouse (H-2^d) prepared in the same way as in Experimental Example 1, 0.5 ml of a suspension of mitomycin C-treated C57BL/6 mouse (H-2^b) spleen cells (2×10^7 cell/ml) and 1.0 ml of the test substance were added to 24-well multidishes, and cultured at 37° C. in an atmosphere of 5% carbon dioxide for 6 days.
After termination of the culture, the cells were harvested by centrifugation, and the concentration of the cell suspension was adjusted to 5×10^6 -6.25×10^5 cells/ml by using the RPMI1640 culture medium supplemented with 10% FCS, and used as the effector cell suspension.
The target cells used were leukemia cells EL4 from the syngenic (H-2^b) C57BL/b mouse as used for preparation of the stimulator cells. By incubating 10^6 EL4 cells in the presence of 100 μCi of Na2^51 CrO4 (1 mCi/ml) at 37° C. for 1 hour to incorporate ^51 Cr into the cytoplasm. The cell were washed, adjusted to the concentration of 10^4 cells/ml and used as the target cell suspension.
For the assay of the cytotoxic activity, 0.1 ml of the effector cell suspension and 0.1 ml of the target cell suspension were added to 96-well flat-bottomed plates, and cultured at 37° C. for 4 hours. The amount of ^51 Cr released into the supernatant was determined and the cytotoxic activity was calculated by the following formula. [formula]

[4] = tested on: IL3 production in mouse allogenic MLC; assay: suppression of IL3 production in mouse allogenic MLC; type: cell-based; conditions: for inhibition at 0.01 µg/mL / inhibition at 0.1 µg/mL / inhibition at 1 µg/mL / inhibition at 10 µg/mL: Mus musculus, read-out: Suppression
Method: The supernatant of mouse allogenic MLC and the supernatant of PHA-stimulated mouse spleen cells culture were prepared in the same manner as in Experimental Example 6.
The IL3 activity in the supernatant described above was assayed as follows: IL3-dependent mouse cell line FDC-P2 cells were suspended in the RPMI1640 culture medium supplemented with 10% FCS to the concentration of 10^5 cells/ml, and 100 μl of the suspension was added to each well of 96-well microculture plates in which 100 μl per well of the two-fold serial dilutions of the supernatant described above had been placed. After culturing at 37° C. in an atmosphere of 5% carbon dioxide for 20 hours, 0.5 μCi/well of ^3 H-thymidine was added, and cultured for further 4 hours under the same conditions. After termination of the culture, the cells were harvested by a cell harvester, and the radioactivity incorporated into the cells was measured by a liquid scintillation counter. The IL3 activity was expressed in U/ml as the titer at the concentrations at which the amount of ^3 H-thymidine incorporated was 50% of the maximum.

[5] = 0.1 μg/ml, effector:target 25:1
[6] = 0.1 μg/ml, effector:target 50:1
[7] = 0.1 μg/ml, effector:target 100:1

Row | SMILES | Absorbancy ([1]; 0.1 μg/ml) | Absorbancy ([1]; 1.0 μg/ml) | Absorbancy ([1]; 10.0 μg/ml) | Absorbancy ([1]; 100.0 μg/ml) | IL2 activity ([2]; 0.01 μg/ml) [U/ml] | IL2 activity ([2]; 0.1 μg/ml) [U/ml] | IL2 activity ([2]; 1 μg/ml) [U/ml] | IL2 activity ([2]; 10 μg/ml) [U/ml] | Amount of 51Cr release [3, 5] [cpm] | Amount of 51Cr release [3, 6] [cpm] | Amount of 51Cr release [3, 7] [cpm] | IL3 activity ([4]; 0.01 μg/ml) [U/ml] | IL3 activity ([4]; 0.1 μg/ml) [U/ml] | IL3 activity ([4]; 1 μg/ml) [U/ml] | IL3 activity ([4]; 10 μg/ml) [U/ml] | inhibition at 0.01 µg/mL [4] [%] | other results
1 | CCCCCCC(=O)CCCCCC/C=C/CC(O)C(O)C(N)(CO)C(=O)O (centres unmarked) [Example 1] | 0.972 | 0.961 | 0.869 | 0.041 | 6.5 | 2.5 | 1.1 | < 1 | 764 | 773 | 771 | 13.9 | 12.1 | 9.8 | < 2 | 62.2 | Absorbancy ([1]; 0.01 μg/ml): 0.990; inhibition at 0.01 µg/mL [2]: 46.3%; inhibition at 0.1 µg/mL [2]: 79.3%; inhibition at 1 µg/mL [2]: 90.9%; inhibition at 10 µg/mL [2]: > 92%; Amount of 51Cr release ([3]; 0.01 μg/ml, effector:target 25:1): 816 cpm; Amount of 51Cr release ([3]; 0.01 μg/ml, effector:target 50:1): 783 cpm; Amount of 51Cr release ([3]; 0.01 μg/ml, effector:target 100:1): 808 cpm; inhibition at 0.1 µg/mL [4]: 67.1%; inhibition at 1 µg/mL [4]: 73.4%; inhibition at 10 µg/mL [4]: > 95%
2 | CCCCCCC(=O)CCCCCC/C=C/CC1OC(=O)C(N)(CO)C1O (centres unmarked) [Example 4] | 0.407 | 0.401 | 0.319 | 0.009 | 4.9 | 2.6 | < 1 | < 1 | 767 | 780 | 761 | 26.0 | 16.0 | 8.6 | 6.1 | 29.3 | inhibition at 0.01 µg/mL ([2]; 0.01 μg/ml): 59.5%; inhibition at 0.1 µg/mL ([2]; 0.1 μg/ml): 78.5%; inhibition at 1 µg/mL ([2]; 1 μg/ml): > 92%; inhibition at 10 µg/mL ([2]; 10 μg/ml): > 92%; Cytotoxic activity [3, 5]: 0%; Cytotoxic activity [3, 6]: 0%; Cytotoxic activity [3, 7]: 0%; inhibition at 0.1 µg/mL ([4]; 0.1 μg/ml): 56.5%; inhibition at 1 µg/mL ([4]; 1 μg/ml): 76.6%; inhibition at 10 µg/mL ([4]; 10 μg/ml): 83.4%
